We go through 16 compounds from patent US20220177485A1, “CAMPTOTHECIN DERIVATIVE, PREPARATION METHOD THEREFOR AND APPLICATION THEREOF” (MARINE BIOMEDICAL RESEARCH INSTITUTE OF QINGDAO CO., LTD., priority 2018, published 2022).

The structures appear in SMILES notation. Where “and” joins values, the source holds several entries; their conditions need not be identical. Identical values can stand only once. Like-named read-outs stand apart in the source and are kept apart here. Marks after values point to notes of the source that are not given here.

Data set [1] relates to NCI-H1975 cells (non-small cell lung adenocarcinoma cancer cell). In words: growth inhibition of tumor cells in vitro, NCI-H1975. The class given is cell-based. Particulars: for IC50: Homo sapiens. The source says: (§1) We tested compounds target a variety of tumor cell for the growth inhibition to show its antitumor activity by using the method of the field technicians known. Chooses the tumor cell lines include: A549 cell non-small cell lung cancer cell line (people), K562 cells (human chronic myeloid leukemia cells), NCI-H1975 cells (non-small cell lung adenocarcinoma cancer cell), MDA-MB-231 cells (human breast cancer cells) and HCT-116 cells (human colon cancer cells).

In data set [2] the test system is MDA-MB-231 cells (human breast cancer cells). In words: growth inhibition of tumor cells in vitro, MDA-MB-231. The class given is cell-based. The note with it: for IC50: Homo sapiens.
Text: as §1

Data set [3] deals with HCT-116 cells (human colon cancer cells). In words: cells. Format: cell-based. The note with it: for IC50: Homo sapiens.
Text: as §1

Data set [4] deals with heat shock protein (HSP90). In words: macromolecular interaction on chip, HSP90. The class given is binding. Particulars: compound fixed on the chip; HSP90 100 nM. Here is the method:
(§2) The experimental scheme: 1. Fixed the compounds on the chip:
(§3) Mobile phase were EGF (1 μM), FGF (1 μM), HSP90 (100 nM), FKBP12 (100 nM).
(§4) Detection whether small molecule compounds combined with the provided protein of heat shock protein (HSP90), epidermal growth factor (EGF) and fibroblast growth factor (FGF); and provide relevant data of combined dynamics.

Data set [5] addresses T1, epidermal growth factor (EGF) (Homo sapiens, UniProt P01133).
T1 construct: epidermal growth factor (EGF)
Description: macromolecular interaction on chip, EGF. Format: binding. Particulars: for KD EGF: compound fixed on the chip, EGF 1 μM. On the procedure:
as §2, §3, §4

For data set [6], the target named is fibroblast growth factor (FGF). Description: macromolecular interaction on chip, FGF. Format: binding. Particulars: compound fixed on the chip; FGF 1 μM. On the procedure: as §2, §3, §4
Data set [7] deals with A549 cell non-small cell lung cancer cell line. Description: growth inhibition of tumor cells in vitro, A549. Format: cell-based, human. The note with it: Homo sapiens, A549, A549 cell line; read-out: IC50 A549.
Text: as §1

Data set [8] deals with K562 cells (human chronic myeloid leukemia cells). Description: growth inhibition of tumor cells in vitro, K562. The class given is cell-based. Particulars: K562 cell line, read-out: IC50 K562.
Text: as §1

For data set [9], the system named is A549 lung transplantation tumor model and RM-1 (prostate) transplantation tumor model. Description: antitumor activity in vivo, transplanted tumor models in kunming mice. The note with it: intraperitoneal injection.
Description: Using the known in the field of technology, the antitumor activity of compounds in vivo was tested in kunming mice transplanted tumor model. The transplantation tumor models tested including A549 lung transplantation tumor model and RM-1 (prostate) transplantation tumor model. We conducted the tests by intraperitoneal injection.
Data set [10] concerns HCT-116 transplanted tumors. The note with it: for Tumor volume size: day 23, x ± SE; for Inhibitory rate: day 23. On the procedure:
Digesting collecting cells after the desired amount of cells. Diluting the cells into 250 million/ml cell suspension with 5 A culture medium containing 10% fetal bovine serum. […] Stay around tumor growth to 1 g tissue block, cutting short diameter growth of around 1 mm plaque, by inserting a catheter method. […] Compound of low dose group and high dose group were given by gavages once a week, respectively. The group of irinotecan and 5-fluorouracil were treated by intravenous every three days. Recording changes in body weight in mice, and tumors size three times a week.

[11] abbreviates: NCI-H1975, read-out: IC50 NCI-H1975.
[12] abbreviates: MDA-MB-231, read-out: IC50 MDA-MB-231.
Setting [13] is: HCT-116, read-out: IC50 HCT-116.
Setting [14] is: NCI-H1975 cell line, read-out: IC50 NCI-H1975.
The mark [15] stands for this setting: MDA-MB-231 cell line, read-out: IC50 MDA-MB-231.
[16] abbreviates: HCT-116 cell line, read-out: IC50 HCT-116.
Setting [17] is: 20 mg/kg intravenous every three days.

T1 sequence (P01133 971-1023 limits assumed, species assumed): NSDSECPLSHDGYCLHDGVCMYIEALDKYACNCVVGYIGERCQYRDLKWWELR

As for `CC[C@@]1(O)C(=O)OCc2c1cc1n(c2=O)Cc2c-1nc1cc3c(cc1c2-c1cccs1)OCO3` [Compound 26, 20(S)-7-(thiophene-2-yl)-10,11-methylenedioxy-camptothecin], the figures for the IC50 in [1] (setting [11]), in data set [2] (setting [12]) and in [3] (setting [13]) were 0.36 ± 0.06 nM, 0.56 ± 0.03 nM and 102 ± 6.18 nM, respectively. Also, the “ranking of activity in NCI-H1975” value in data set [1] (among Table 2 compounds) was “best activities”. For the same compound, in [2] (among Table 2 compounds), the “ranking of activity in MDA-MB-231” value is recorded as “best activities”.

On to `CC[C@@]1(O)C(=O)OCc2c1cc1n(c2=O)Cc2c-1nc1cc3c(cc1c2-c1ccc2[nH]ccc2c1)OCO3` [Compound 29], for which the IC50 was determined as 79.7 ± 3.52 nM in data set [1] (setting [11]), 7.98 ± 0.72 nM in data set [2] (setting [12]) and 1.84 ± 0.11 nM in [3] (setting [13]).

Take `CC[C@@]1(O)C(=O)OCc2c1cc1n(c2=O)Cc2c-1nc1cc3c(cc1c2-c1ccsc1)OCO3` [Compound 24, 20(S)-7-(thiophene-3-yl)-10,11-methylenedioxy-camptothecin]: the IC50 in [1] (setting [14]) came out at 16.2 ± 0.83 nM; in data set [2] (setting [15]), 1.93 ± 0.26 nM; in [3] (setting [16]) it was 0.21 ± 0.02 nM. Besides, in data set [3], the “ranking of cytotoxic activity in HCT-116” value is listed as “best cytotoxic activity”. The “KD HSP90” value in data set [4] was “No combination”. Moreover, the “KD EGF” value in data set [5] is listed as “No combination”. Further, in data set [6], the “KD FGF” value is “No combination”.

Turning to `CC[C@@]1(O)C(=O)OCc2c1cc1n(c2=O)Cc2cc3c(CN(C)C)c(O)ccc3nc2-1` [Topotecan, reference compound], the IC50 in data set [7] was 559 ± 8.6 nM; in [8], 636 ± 8.95 nM; in data set [1] (setting [14]), more than 500 nM; in data set [2] (setting [15]), 123 ± 18.2 nM; in data set [3] (setting [16]) it was more than 500 nM. Further, the “KD HSP90” value in [4] is listed as “No combination”. Besides, the “KD EGF” value in data set [5] is reported as “No combination”. The “KD FGF” value in data set [6] is “No combination”.

In the case of `CC[C@@]1(O)C(=O)OCc2c1cc1n(c2=O)Cc2c-1nc1cc3c(cc1c2CCc1ccccc1N1CCOCC1)OCO3` [Compound 15], the melting point was more than 250 °C. Besides, the “antitumor activity in vivo compared with topotecan” value in data set [9] was “better than that of topotecan”.

As for `CC[C@@]1(O)C(=O)OCc2c1cc1n(c2=O)Cc2c-1nc1cc3c(cc1c2-c1ccoc1)OCO3` [Compound 23, 20(S)-7-(furan-3-yl)-10,11-methylenedioxy-camptothecin], the IC50 in data set [1] (setting [14]) stood at 95.5 ± 5.57 nM; in data set [2] (setting [15]), 83.8 ± 6.64 nM; in data set [3] (setting [16]), 2.97 ± 0.25 nM. Besides, the “KD HSP90” value in data set [4] is listed as “No combination”. Besides, the “KD EGF” value in [5] is listed as “No combination”. Moreover, in data set [6], the “KD FGF” value is “No combination”. The mice weight change entry in data set [10] (high and low dose group, weight returned after 10 days but still lower than control) was “declined”. In addition, the Tumor volume size in [10] (high dose 5 mg/kg, gavage once a week) is 19.94 ± 2.17*^a mm^3; in data set [10] (low dose 2.5 mg/kg, gavage once a week), 100.52 ± 20.45*^a mm^3. Besides, the Inhibitory rate in [10] (high dose 5 mg/kg, gavage once a week, 5 mg/kg) was 87.04% and 95.45^a %; in data set [10] (low dose 2.5 mg/kg, gavage once a week, 2.5 mg/kg), 95.45% and 87.04^a %. The “antitumor activity in vivo compared with topotecan” value in [9] was “better than that of topotecan”.

`O=c1[nH]cc(F)c(=O)[nH]1` [5 - fluorouracil, 5-fluorouracil, reference compound]: in data set [10] (setting [17]), the Inhibitory rate is 55.64^a % and the Tumor volume size is listed as 342.28 ± 128.00^a mm^3.

As to `CC[C@@]1(O)C(=O)OCc2c1cc1n(c2=O)Cc2c-1nc1cc3c(cc1c2-c1ccco1)OCO3` [Compound 27, 20(S)-7-(furan-2-yl)-10,11-methylenedioxy-camptothecin], the IC50 was determined as 4.53 ± 0.16 nM in data set [1] (setting [11]), 1.79 ± 0.14 nM in data set [2] (setting [12]) and 0.25 ± 0.01 nM in [3] (setting [13]).

For the compound `CC[C@@]1(O)C(=O)OCc2c1cc1n(c2=O)Cc2c-1nc1cc3c(cc1c2CCN1CCOCC1)OCO3` [Compound 51, 20(S)-7-(2-morpholinoethyl)-10,11-methylenedioxy-camptothecin], the IC50 in [8] was 13 ± 3.25 nM. Besides, the “KD HSP90” value in data set [4] is listed as “No combination”. Moreover, in data set [5], the Kd amounted to 4.15 nM and the “KD EGF” value is reported as “can combine”. In addition, in [6], the “KD FGF” value is “can combine” and the Kd came to 46 nM. Moreover, the “antitumor activity in vivo compared with topotecan” value in [9] was “better than that of topotecan”.

For the compound `CC[C@@]1(O)C(=O)OCc2c1cc1n(c2=O)Cc2c-1nc1cc3c(cc1c2CCc1ccc(N2CCCC2)c(F)c1)OCO3` [Compound 11, 20(S)-7-(3-fluoro-4-(pyrrolidin-1-yl))-10,11-methylenedioxy-camptothecin], the melting point was more than 250 °C. For the same compound, the IC50 in [8] turned out to be 305 ± 8.75 nM. Further, the “antitumor activity in vivo compared with topotecan” value in [9] was “better than that of topotecan”.

On to `CC[C@@]1(O)C(=O)OCc2c1cc1n(c2=O)Cc2c-1nc1cc3c(cc1c2-c1ccnn1C)OCO3` [Compound 30], for which the figures for the IC50 in data set [1] (setting [11]), in [2] (setting [12]) and in data set [3] (setting [13]) were 37.3 ± 2.82 nM, 43.4 ± 2.18 nM and 0.93 ± 0.08 nM, respectively.

With `CC[C@@]1(O)C(=O)OCc2c1cc1n(c2=O)Cc2c-1nc1cc3c(cc1c2-c1cnn(C)c1)OCO3` [Compound 25, 20(S)-7-(1-methyl-1H-pyrazol-4-yl)-10,11-methylenedioxy-camptothecin], the IC50 in data set [1] (setting [14]) is 35.2 ± 3.15 nM; in data set [2] (setting [15]), 3.76 ± 1.08 nM; in data set [3] (setting [16]), 0.34 ± 0.06 nM. Also, the “KD HSP90” value in [4] is “No combination”. Moreover, in data set [5], the “KD EGF” value was “No combination”. For the same compound, in data set [6], the “KD FGF” value is “No combination”.

For `CC[C@@]1(O)C(=O)OCc2c1cc1n(c2=O)Cc2c-1nc1cc3c(cc1c2-c1cnn(C2CCCCO2)c1)OCO3` (stereo partly shown) [Compound 28], the IC50 in data set [1] (setting [11]) is 7.97 ± 0.52 nM; in data set [2] (setting [12]), 1.56 ± 0.14 nM; in data set [3] (setting [13]) it was 0.78 ± 0.06 nM.

For `CCc1c2c(nc3ccc(OC(=O)N4CCC(N5CCCCC5)CC4)cc13)-c1cc3c(c(=O)n1C2)COC(=O)[C@]3(O)CC` [Irinotecan, reference compound], the Inhibitory rate in [10] (6 mg/kg intravenous every three days) is recorded as 78.12^a %.

`CC[C@@]1(O)C(=O)OCc2c1cc1n(c2=O)Cc2c-1nc1cc3c(cc1c2-c1cccnc1)OCO3` [Compound 22, 20(S)-7-(pyridin-3-yl)-10,11-methylenedioxy-camptothecin]: the IC50 in data set [1] (setting [11]) stood at 12.6 ± 2.43 nM; in data set [2] (setting [12]) it was 4.09 ± 0.46 nM; in [3] (setting [13]), 0.18 ± 0.03 nM.

Regarding `CC[C@@]1(O)C(=O)OCc2c1cc1n(c2=O)Cc2c-1nc1cc3c(cc1c2-c1ccncc1)OCO3` [Compound 21, 20(S)-7-(pyridin-4-yl)-10,11-methylenedioxy-camptothecin], the figures for the IC50 in data set [1] (setting [11]), in data set [2] (setting [12]) and in data set [3] (setting [13]) were 20.4 ± 3.65 nM, 4.92 ± 0.36 nM and 0.74 ± 0.07 nM, respectively. Besides, the “KD HSP90” value in [4] is “No combination”. The Kd came out at 49.3 nM in [5] and 18.9 nM in data set [6]. In addition, the “KD EGF” value in [5] was “can combine”. Also, the “KD FGF” value in data set [6] is listed as “can combine”.
